From patent US10392363B2, “Methods for treating protozoan infections” (Neoculi Pty Ltd., priority 2014, dated 2019)
Marks after values point to notes of the source that are not given here.

Tests used:
[1] = Solubility estimates using nephelometry; assay type: physicochemical; conditions: pH 6.5 phosphate buffer
Experimental: Compound in DMSO was spiked into either pH 6.5 phosphate buffer or 0.01 M HCl (approx. pH 2.0) with the final DMSO concentration being 1%. Samples were then analysed via Nephelometry to determine a solubility range. (See C. D. Bevan and R. S. Lloyd, Anal. Chem. 2000, 72, 1781-1787).

[2] = Exposure in male Swiss outbred mice following IV administration; assay type: in vivo; conditions: IV 5 mg/kg
Experimental: The systemic exposures of NCL026, NCL195, NCL259 and NCL812 were studied in nonfasted male Swiss outbred mice weighing 26.2-32.1 g. Mice had access to food and water ad libitum throughout the pre- and post-dose sampling period. Each compound was administered IV via a bolus injection into the tail vein (vehicle 20% (v/v) DMSO in PEG400, 1 mL/kg dose volume, n=8 mice per compound). […] A maximum of two samples were obtained from each mouse, with samples being taken either via submandibular bleed (approximately 120 μL; conscious sampling) or terminal cardiac puncture (0.6 mL; while mice were anaesthetised using inhaled Isoflurane). No urine samples were collected as mice were housed in bedded cages during the study. Blood was collected directly into polypropylene Eppendorf tubes containing heparin as anticoagulant, and stabilisation cocktail (containing Complete® (a protease inhibitor cocktail with EDTA) and potassium fluoride) to minimise the potential for ex vivo degradation of the test compounds in blood/plasma samples. Once collected, blood samples were centrifuged immediately, supernatant plasma was removed, and stored at −80° C. until analysis by LC-MS using methods standard in the art. Each compound was administered in a vehicle composed of 20% (v/v) DMSO in PEG400. Formulations were prepared by dissolving the compounds in DMSO prior to addition of PEG400. Formulations were not filtered prior to dosing and were administered to mice within 2.5 h of preparation. […] The dose administered to each mouse was calculated on the basis of the measured concentration in the IV formulation, the dose volume and individual mouse body weight. Plasma concentration versus time data were analysed using non-compartmental methods (WinNonlin Version 6.3.0.395). Standard calculations for each pharmacokinetic parameter were calculated using standard methods in the art.

[3] = values marked a, b are approximations

kinetic solubility under neutral pH conditions [1]: more moderate
Apparent t1/2 ([2]; plasma, value marked b is an approximation): 2.9 h
AUC0-inf [2, 3]: 5.5^a h * μM
Plasma CL [2, 3]: 56.0^a mL/min/kg
Plasma Vss [2, 3]: 12.8^a L/kg
Structure (SMILES): Cl.[H]/N=C(\N)NN=C(CC1CCCCC1)c1ccc(Cl)cc1 [NCL259]
